Experimental data from patent US20230414826A1, “FIBRIN HYDROGELS” (Mayo Foundation for Medical Education and Research, priority 2020, published 2023).

Target: T1, fibrinogen and thrombin (clinical standard from the manufacturer) (Homo sapiens, UniProt P02671+P02675+P02679)
T1 sequence (P02671 20-629 limits assumed): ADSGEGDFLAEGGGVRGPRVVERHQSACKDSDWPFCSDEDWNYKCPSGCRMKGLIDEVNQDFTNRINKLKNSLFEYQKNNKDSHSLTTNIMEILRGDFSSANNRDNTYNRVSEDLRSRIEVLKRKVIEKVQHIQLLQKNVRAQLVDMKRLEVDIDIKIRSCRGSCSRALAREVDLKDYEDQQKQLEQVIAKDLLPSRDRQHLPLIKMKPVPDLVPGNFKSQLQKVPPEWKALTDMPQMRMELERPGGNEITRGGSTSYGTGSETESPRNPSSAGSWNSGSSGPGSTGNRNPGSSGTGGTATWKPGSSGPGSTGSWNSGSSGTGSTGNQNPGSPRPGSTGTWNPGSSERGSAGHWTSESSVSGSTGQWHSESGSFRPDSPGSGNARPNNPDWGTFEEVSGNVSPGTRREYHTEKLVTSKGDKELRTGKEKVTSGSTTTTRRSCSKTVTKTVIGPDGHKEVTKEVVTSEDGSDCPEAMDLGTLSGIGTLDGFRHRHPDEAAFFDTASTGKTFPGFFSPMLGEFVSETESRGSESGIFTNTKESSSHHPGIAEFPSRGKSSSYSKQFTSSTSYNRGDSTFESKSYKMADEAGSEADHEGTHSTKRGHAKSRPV
T1 sequence (P02675 31-491): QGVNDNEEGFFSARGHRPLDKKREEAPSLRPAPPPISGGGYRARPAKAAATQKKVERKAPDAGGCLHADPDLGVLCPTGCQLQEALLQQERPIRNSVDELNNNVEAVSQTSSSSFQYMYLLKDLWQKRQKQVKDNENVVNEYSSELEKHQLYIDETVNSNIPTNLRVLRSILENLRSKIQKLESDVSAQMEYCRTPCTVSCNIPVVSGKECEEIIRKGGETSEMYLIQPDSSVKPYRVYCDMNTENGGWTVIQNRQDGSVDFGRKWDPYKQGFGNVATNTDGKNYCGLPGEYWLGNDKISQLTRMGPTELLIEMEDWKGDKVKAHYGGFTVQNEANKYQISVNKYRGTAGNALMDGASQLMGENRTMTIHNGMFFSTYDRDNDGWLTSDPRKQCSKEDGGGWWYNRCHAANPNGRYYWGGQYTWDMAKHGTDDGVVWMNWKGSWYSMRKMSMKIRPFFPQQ
T1 sequence (P02679 27-433 limits assumed): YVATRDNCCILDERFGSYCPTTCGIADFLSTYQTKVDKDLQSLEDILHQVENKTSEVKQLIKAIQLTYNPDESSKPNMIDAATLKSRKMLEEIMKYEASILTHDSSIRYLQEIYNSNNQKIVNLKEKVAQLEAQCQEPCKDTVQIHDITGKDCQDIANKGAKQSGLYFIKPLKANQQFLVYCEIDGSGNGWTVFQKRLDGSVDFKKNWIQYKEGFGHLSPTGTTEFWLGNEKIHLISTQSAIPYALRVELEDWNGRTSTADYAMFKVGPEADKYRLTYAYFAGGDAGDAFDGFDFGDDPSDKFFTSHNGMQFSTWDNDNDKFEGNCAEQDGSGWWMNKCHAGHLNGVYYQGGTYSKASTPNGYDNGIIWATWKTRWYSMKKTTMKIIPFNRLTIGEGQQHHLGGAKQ
Assay: Fibrinogen clotting assay with coagulation analyzer (Clauss method), clinical fibrinogen standard
Format: biochemical
Conditions: clinical standard samples diluted in 1× citrate buffer + TB (4.58 mM), pH 7.4, 37° C.
Method: The effect of various chemical compounds on clotting time was determined. […] The chemical additives were added to either clinical fibrinogen standards (Stago; Parsippany NJ) or a 1:20 dilution of the Evicel Biologically Active Component 2 (Ethicon), which is a fibrinogen solution (60 mg/mL) and served as the various samples. The same lot of BAC2 was used within each experiment to minimize lot-lot variability.
The Clauss method was used to measure fibrin clotting time. The clotting assay was performed using the Stago STart® Coagulation Analyzer (Stago; Parsippany, NJ) per manufacturer's protocol. The Stago STart uses a mechanical, viscosity-based detection of clotting, independent of sample color and turbidity. Per the protocol, samples were diluted 1:20 in Owren-Koller buffer (Stago) and allowed to equilibrate for 5 minutes at 37° C. Each sample was loaded in a cuvette with a magnetic bead.
In efforts to improve the visibility of fibrin gels during surgical implantation, it was observed that the inclusion of TB in the gelation mixture improved handling of the liquid phase of the gelation reaction. […] A coagulation analyzer is a specialized clinical instrument that is used to quantify fibrinogen concentrations in patient blood samples via the Clauss Method (Clauss, Acta Haematol., 17:237-46 (1957)). […]

## Cc1cc(-c2ccc(/N=N/c3c(S(=O)(=O)O)cc4cc(S(=O)(=O)O)cc(N)c4c3O)c(C)c2)ccc1/N=N/c1c(S(=O)(=O)O)cc2cc(S(=O)(=O)O)cc(N)c2c1O [TB, Trypan Blue]
  gelation time (clotting time): 14.6 ± 1.5 s
